Laboratory results from ChEMBL document CHEMBL1201862, “PubChem BioAssay data set” (2004).
Active and inactive are the calls of the source.

Columns and labels:
[1] = non-specific 3'UTR reporter inhibition in Clone20-Shn3RL – cell-based, Renilla luciferase, cherry-picked, counter-screen for Shn3 inhibitor project, dose response (AID 624133); format: functional
[2] = reduction of Shn3 3'UTR-driven luciferase in osteoblasts – cell-based, Clone20 osteoblasts, firefly luciferase, cherry-picked, dose response (AID 624132); format: functional;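 note: firefly luciferase luminescence from reporter carrying the Shn3 3'UTR in osteoblasts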
[3] = microbe, parasite or virus in culture; format: functional; conditions: Mycobacterium tuberculosis
[4] = viability of PTEN-deleted HCT116 cells – cell-based, HCT116 PTEN knockout, dose response (AID 1047); format: functional;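 note: HCT116 colon tumor cells with PTEN knocked out; cells exposed to compound for 60 hours before readout; potency for loss of cell viability measured by luminescence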
[5] = viability of HCT116 lacking mutant beta-catenin – cell-based, human colon tumor, dose response (AID 1045); format: functional;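 note: HCT116 colon tumor cells with beta catenin knocked out; cells exposed to compound for 60 hours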
[6] = blockers of bursicon-stimulated LGR2 cAMP reporter – cell-based, HEK293, CRE-luciferase reporter, cherry pick, set 2, dose response (AID 743343); format: functional;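 note: transfected cells were stimulated with diluted bursicon conditioned medium after compound addition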
[7] = viability loss in HEK293 cells – cell-based, plate reader, cherry-picked samples, cytotoxicity control, dose response (AID 743446); format: functional
[8] = loss of viability in HepG2 cells – cell-based, CellTiter-Glo, cherry-picked, cytotoxicity control for Shn3 inhibitor project, dose response (AID 624134); format: functional
[9] = A549 cell cytotoxicity, dose response, cytotoxicity control, plate reader, cherry-pick, antagonist series (AID 743412); format: functional, cell-based
[10] = cAMP pathway inhibition in counterscreen cell line – TR-FRET cAMP detection, counter-screen for MC4R biased antagonist project, dose response (AID 602305); format: functional, cell-based;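 note: U2OS cells stimulated with forskolin near its EC80 as the cAMP inducer; potency is for inhibition of forskolin-stimulated cAMP signaling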
[11] = HEK-293T cell viability reduction – luminescence, B-cell screen hits, cytotoxicity control for BCR NF-kB inhibitor project, dose response (AID 489021); format: functional, cell-based;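 note: HEK-293T cells carrying an NF-kB luciferase reporter; cells exposed to compound for about 14 hours before viability readout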
[12] = target: Melanocortin receptor 4 (Homo sapiens, UniProt P32245); assay: inhibitors of MC4R cAMP signaling – cell-based, TR-FRET, biased antagonists, dose response (AID 602298); format: functional;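 note: antagonist potency against agonist-stimulated cAMP production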
[13] = toxicity toward HepG2 liver cells – cell-based, plate reader, cherry-pick, antagonist series, cytotoxicity control, dose response (AID 743416); format: functional
[14] = blockade of melanocortin 4 receptor signaling – cell-based, plate reader, cherry pick, counter-screen for LGR2 antagonist project, dose response (AID 743444); format: functional;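 note: transfected HEK 293 cells stimulated with alpha-MSH peptide; potency of inhibitors of the alpha-MSH evoked signal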
[15] = target: Multidrug resistance protein CDR2 (Candida albicans (strain SC5314 / ATCC MYA-2876) (Yeast), UniProt P78595); assay: inhibition of Nile Red efflux via Candida CDR2 – S. cerevisiae AD1-8u, singleplex, Cherry Pick1 hits, dose response (AID 588604); format: functional
[16] = target: T1, DNA dC->dU-editing enzyme APOBEC-3G (Homo sapiens, UniProt Q9HC16); assay: SAR analysis of small molecule inhibitors of APOBEC3G DNA Deaminase via a fluorescence-based single-stranded DNA deaminase assay - Set 2.; format: functional; conditions: read-out: IC50_Mean
[17] = target: T1, DNA dC->dU-editing enzyme APOBEC-3G; format: functional
[18] = target: T1, DNA dC->dU-editing enzyme APOBEC-3G; assay: inhibition of APOBEC3G ssDNA deamination – biochemical, fluorescence, single-stranded DNA substrate, SAR follow-up (AID 602136); format: functional; conditions: read-out: IC50_Mean
[19] = target: T2, DNA dC->dU-editing enzyme APOBEC-3A (Homo sapiens, UniProt P31941); assay: SAR analysis of small molecule inhibitors of APOBEC3A DNA Deaminase via a fluorescence-based single-stranded DNA deaminase assay.; format: functional; conditions: read-out: IC50_Mean
[20] = target: T2, DNA dC->dU-editing enzyme APOBEC-3A; assay: SAR analysis of small molecule inhibitors of APOBEC3A DNA Deaminase via a fluorescence-based single-stranded DNA deaminase assay - Set 2.; format: functional; conditions: read-out: IC50_Mean
[21] = target: T2, DNA dC->dU-editing enzyme APOBEC-3A; assay: Dose Response confirmation of small molecule APOBEC3A DNA Deaminase Inhibitors via a fluorescence-based single-stranded DNA deaminase assay. [Related pubchem assays (depositor defined):AID493011, AID493024]; format: functional
[22] = target: Sphingosine 1-phosphate receptor 4 (Homo sapiens, UniProt O95977); assay: Late-stage fluorescence-based dose-response cell-based counterscreen assay to identify agonists of the Sphingosine 1-Phosphate Receptor 3 (S1P3): Sphingosine 1-Phosphate Receptor 4 (S1P4) agonist assay.; format: functional
[23] = target: Sphingosine 1-phosphate receptor 2 (Homo sapiens, UniProt O95136); assay: Late-stage fluorescence-based dose-response cell-based counterscreen assay to identify agonists of the Sphingosine 1-Phosphate Receptor 3 (S1P3): Sphingosine 1-Phosphate Receptor 2 (S1P2) agonist assay.; format: functional
[24] = target: Dual specificity tyrosine-phosphorylation-regulated kinase 1A (Homo sapiens, UniProt Q13627); format: functional;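 note: measured against DYRK1A as one member of a broad kinome profiling panel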
[25] = target: Dual specificity tyrosine-phosphorylation-regulated kinase 1B (Homo sapiens, UniProt Q9Y463); assay: Navigating the Kinome. Panel member name: DYRK1B; format: functional
[26] = target: Mitogen-activated protein kinase 8 (Homo sapiens, UniProt P45983); format: functional;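 note: value comes from one member of a kinome-wide kinase profiling panel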
[27] = target: Dual specificity protein kinase CLK4 (Homo sapiens, UniProt Q9HAZ1); format: functional
Dual specificity protein kinase CLK4, sequence (Q9HAZ1 whole entry): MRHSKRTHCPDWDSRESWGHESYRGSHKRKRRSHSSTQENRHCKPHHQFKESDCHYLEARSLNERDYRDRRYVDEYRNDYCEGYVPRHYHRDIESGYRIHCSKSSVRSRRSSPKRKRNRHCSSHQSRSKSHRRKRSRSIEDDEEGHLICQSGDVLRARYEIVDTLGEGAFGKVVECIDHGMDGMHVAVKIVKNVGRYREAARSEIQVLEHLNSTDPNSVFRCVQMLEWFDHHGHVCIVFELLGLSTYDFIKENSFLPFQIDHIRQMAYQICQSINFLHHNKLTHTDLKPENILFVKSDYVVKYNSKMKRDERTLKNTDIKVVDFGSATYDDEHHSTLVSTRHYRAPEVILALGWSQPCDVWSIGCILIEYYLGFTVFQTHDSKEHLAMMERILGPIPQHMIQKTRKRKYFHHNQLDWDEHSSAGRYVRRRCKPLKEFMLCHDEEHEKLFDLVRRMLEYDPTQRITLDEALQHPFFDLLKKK

T1 sequence (Q9HC16 whole entry): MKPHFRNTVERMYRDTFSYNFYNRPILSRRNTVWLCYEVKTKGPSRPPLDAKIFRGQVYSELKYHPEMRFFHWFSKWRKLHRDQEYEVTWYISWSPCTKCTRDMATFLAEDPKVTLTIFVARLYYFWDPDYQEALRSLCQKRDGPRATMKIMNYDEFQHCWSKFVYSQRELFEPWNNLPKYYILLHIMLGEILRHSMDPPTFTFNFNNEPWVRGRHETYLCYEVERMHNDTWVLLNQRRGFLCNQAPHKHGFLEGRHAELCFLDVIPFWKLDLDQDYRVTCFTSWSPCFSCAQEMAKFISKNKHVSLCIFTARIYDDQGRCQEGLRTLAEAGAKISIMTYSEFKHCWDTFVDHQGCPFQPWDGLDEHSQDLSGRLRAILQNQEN
T2 sequence (P31941 whole entry): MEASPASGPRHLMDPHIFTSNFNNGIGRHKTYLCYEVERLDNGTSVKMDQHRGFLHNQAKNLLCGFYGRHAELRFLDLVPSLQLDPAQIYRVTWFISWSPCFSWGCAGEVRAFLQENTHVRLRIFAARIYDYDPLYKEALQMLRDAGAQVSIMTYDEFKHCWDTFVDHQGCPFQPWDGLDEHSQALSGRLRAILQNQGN
Sphingosine 1-phosphate receptor 2, sequence (O95136 whole entry): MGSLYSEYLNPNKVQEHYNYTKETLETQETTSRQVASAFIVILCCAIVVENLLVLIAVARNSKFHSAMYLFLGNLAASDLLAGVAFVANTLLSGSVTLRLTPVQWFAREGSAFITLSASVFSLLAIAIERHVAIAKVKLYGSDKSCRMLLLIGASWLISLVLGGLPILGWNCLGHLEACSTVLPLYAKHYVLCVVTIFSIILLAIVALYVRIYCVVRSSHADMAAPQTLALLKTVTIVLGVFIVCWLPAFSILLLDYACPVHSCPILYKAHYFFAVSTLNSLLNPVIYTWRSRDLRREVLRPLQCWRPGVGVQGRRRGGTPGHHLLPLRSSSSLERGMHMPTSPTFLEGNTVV
Melanocortin receptor 4, sequence (P32245 whole entry): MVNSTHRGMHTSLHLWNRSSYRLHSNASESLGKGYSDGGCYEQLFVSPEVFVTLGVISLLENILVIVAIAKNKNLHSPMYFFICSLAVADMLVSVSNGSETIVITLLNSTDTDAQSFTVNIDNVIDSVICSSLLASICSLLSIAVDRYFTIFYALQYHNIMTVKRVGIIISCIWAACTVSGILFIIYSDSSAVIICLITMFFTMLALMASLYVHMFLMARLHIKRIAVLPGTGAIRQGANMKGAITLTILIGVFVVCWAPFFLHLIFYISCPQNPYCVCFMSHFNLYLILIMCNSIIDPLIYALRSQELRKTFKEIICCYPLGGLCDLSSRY
Dual specificity tyrosine-phosphorylation-regulated kinase 1B, sequence (Q9Y463 whole entry): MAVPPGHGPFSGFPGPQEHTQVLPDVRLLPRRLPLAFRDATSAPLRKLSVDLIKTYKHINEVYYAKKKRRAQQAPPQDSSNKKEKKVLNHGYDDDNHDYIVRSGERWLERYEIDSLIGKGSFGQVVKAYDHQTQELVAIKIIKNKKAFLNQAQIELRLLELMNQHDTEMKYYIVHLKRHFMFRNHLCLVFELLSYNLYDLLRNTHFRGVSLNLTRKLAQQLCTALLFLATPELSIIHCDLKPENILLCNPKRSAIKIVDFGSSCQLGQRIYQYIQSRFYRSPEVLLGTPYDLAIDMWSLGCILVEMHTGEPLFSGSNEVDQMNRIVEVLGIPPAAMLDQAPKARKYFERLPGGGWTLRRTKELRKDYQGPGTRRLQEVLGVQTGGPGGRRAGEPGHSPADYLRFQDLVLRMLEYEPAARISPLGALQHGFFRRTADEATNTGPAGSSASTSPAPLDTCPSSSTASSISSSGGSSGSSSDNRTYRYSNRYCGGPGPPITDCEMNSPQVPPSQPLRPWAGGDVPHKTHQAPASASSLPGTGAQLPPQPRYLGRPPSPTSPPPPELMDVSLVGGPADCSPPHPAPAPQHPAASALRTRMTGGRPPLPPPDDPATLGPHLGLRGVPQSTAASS
Multidrug resistance protein CDR2, sequence (P78595 whole entry): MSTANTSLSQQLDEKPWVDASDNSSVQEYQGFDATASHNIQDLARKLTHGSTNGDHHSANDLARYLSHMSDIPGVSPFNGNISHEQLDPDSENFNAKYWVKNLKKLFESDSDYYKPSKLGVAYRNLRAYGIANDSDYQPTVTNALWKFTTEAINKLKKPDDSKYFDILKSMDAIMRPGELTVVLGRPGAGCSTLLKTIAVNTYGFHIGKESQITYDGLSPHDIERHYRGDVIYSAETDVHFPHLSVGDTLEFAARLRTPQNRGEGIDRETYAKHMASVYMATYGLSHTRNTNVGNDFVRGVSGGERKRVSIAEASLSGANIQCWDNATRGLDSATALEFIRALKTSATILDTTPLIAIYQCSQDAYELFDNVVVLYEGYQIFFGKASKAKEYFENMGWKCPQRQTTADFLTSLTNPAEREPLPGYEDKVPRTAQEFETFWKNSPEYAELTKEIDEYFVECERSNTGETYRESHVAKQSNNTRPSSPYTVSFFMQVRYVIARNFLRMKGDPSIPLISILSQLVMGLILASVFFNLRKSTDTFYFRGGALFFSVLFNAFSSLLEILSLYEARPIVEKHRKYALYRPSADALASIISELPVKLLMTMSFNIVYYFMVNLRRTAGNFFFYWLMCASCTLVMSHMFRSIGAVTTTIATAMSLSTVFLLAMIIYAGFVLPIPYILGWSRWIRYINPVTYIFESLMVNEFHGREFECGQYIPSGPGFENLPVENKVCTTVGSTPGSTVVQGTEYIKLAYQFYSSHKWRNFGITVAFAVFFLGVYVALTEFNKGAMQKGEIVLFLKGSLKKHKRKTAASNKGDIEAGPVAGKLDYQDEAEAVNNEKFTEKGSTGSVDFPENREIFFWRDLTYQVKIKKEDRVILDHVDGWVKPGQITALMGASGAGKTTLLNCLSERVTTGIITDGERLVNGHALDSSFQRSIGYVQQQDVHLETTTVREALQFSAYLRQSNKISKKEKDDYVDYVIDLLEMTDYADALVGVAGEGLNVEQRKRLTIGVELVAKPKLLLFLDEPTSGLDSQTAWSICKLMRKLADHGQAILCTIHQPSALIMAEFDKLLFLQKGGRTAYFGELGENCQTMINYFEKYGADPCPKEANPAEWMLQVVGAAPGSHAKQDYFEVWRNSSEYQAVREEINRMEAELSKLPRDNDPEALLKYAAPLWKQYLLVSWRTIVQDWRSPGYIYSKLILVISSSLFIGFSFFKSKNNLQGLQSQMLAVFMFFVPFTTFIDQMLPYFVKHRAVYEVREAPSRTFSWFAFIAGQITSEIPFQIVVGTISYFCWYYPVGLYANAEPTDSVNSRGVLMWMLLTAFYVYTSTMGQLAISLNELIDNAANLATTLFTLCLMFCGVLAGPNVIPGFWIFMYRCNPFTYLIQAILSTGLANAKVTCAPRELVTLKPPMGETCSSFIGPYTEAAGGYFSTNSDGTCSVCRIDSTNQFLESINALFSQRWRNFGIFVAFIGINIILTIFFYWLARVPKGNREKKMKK
Sphingosine 1-phosphate receptor 4, sequence (O95977 whole entry): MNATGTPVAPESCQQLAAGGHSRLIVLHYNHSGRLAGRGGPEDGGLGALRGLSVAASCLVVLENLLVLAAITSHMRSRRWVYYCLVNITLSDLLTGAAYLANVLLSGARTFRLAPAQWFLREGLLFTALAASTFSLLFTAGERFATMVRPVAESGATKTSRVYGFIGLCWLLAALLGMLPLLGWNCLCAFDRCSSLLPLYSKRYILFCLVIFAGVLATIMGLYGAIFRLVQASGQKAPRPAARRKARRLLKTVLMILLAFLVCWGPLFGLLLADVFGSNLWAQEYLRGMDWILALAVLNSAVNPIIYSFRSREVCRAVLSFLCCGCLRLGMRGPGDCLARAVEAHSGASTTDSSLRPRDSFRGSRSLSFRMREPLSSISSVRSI
Mitogen-activated protein kinase 8, sequence (P45983 whole entry): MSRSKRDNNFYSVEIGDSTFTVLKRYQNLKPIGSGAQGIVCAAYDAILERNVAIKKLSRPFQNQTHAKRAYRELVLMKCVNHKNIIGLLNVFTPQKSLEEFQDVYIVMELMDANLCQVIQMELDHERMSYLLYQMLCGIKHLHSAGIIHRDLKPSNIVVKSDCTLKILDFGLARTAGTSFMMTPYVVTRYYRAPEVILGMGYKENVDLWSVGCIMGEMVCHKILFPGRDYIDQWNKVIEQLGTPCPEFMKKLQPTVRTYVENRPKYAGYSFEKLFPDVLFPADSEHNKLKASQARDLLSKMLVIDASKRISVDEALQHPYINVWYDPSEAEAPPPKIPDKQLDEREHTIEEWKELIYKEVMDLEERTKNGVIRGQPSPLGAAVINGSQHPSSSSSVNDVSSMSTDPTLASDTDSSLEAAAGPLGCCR

COc1ccc(-n2nnnc2S(=O)(=O)CC(=O)N2CCCCC2)cc1
AC50 [1]: 3.45 µM (active)
AC50 [2]: 5.44 µM (active)
CC50 [3]: 11.3 µM (active)
EC50 [4]: 10.6 µM (active)
EC50 [5]: 10.9 µM (active)
AC50 [6]: 7.53 µM (active)
AC50 [7]: 13.6 µM (active)
AC50 [8]: 16.8 µM (active)
AC50 [9]: 13 µM (active)
IC50 [10]: > 64.5 µM (inactive)
IC50 [11]: > 80 µM (inactive)
IC50 [12]: > 64.5 µM (inactive)
AC50 [13]: 8.89 µM (active)
AC50 [14]: 7.63 µM (active)

COc1cccc(-c2sc3ccc(OC)cc3c2-c2ccc(OCCN3CCCCC3)cc2)c1
EC50 [15]: 11.2 µM (active)

C[n+]1cccc(C(=O)Nc2ccccc2)c1
IC50 [16]: 1.1 µM (active)
IC50 [17]: 6.95 µM (active)
IC50 [18]: 5.96 µM (active)
IC50 [19]: 12.8 µM (inactive)
IC50 [20]: 28.6 µM (inactive)
IC50 [21]: 2.75 µM (active)

O=C(c1cc(C2CC2)on1)N(CC1CCCCC1)C1CCCCC1
EC50 [22]: > 50 µM (inactive)
EC50 [23]: > 50 µM (inactive)

O=c1[nH]ccc2cnc(-c3ccccc3)n12
Ki [24]: 63.1 µM (active)
Ki [25]: 79.4 µM (active)
Ki [26]: 25.1 µM (active)
Ki [27]: 39.8 µM (active)
